# Measurements taken from patent US5593970A, “Heterocyclic anthracycline analogs” (priority 1994, dated 1997).
# “Also recorded” adds a separate entry of the source.
# Key:
# [1] = tested on: CNS; assay: NCI assay, average per cancer type
# [2] = tested on: CCRF-CEM; assay: NCI sulforhodamine B assay; format: cell-based; conditions: Homo sapiens, 48 h, read-out: Log10 LC50 (converted)
# Description: The method consists of incubating varying concentrations of the drug with an inoculum of cells for two days. […] The 57 cell lines included two mouse leukemia lines (P388 parental and adriamycin resistant) and 56 human cell lines.
# It should be noted that the first two parameters (GI50 and TGI) relate to antiproliferation effects while the third one (LC50) indicates true cytotoxicity. A value of -4 or greater is considered to denote resistance (inactivity).
# [3] = tested on: NSC Lung; assay: NCI assay, average per cancer type
# [4] = tested on: Colon; assay: NCI assay, average per cancer type
# [5] = tested on: tumor cell lines; assay: NCI sulforhodamine B assay, all cell lines
# [6] = tested on: Renal; assay: NCI assay, average per cancer type
# [7] = tested on: Melanoma; assay: NCI assay, average per cancer type
# [8] = tested on: SC Lung; assay: NCI assay, average per cancer type
# [9] = tested on: tumor cell lines; assay: Tumor clonogenic assay, overall; format: cell-based
# Description: For the IN VITRO test, we chose a tumor clonogenic assay which measures the ability of tumoral cells to form colonies (multicellular growth units) as a result of cell division in semisolid agar support (2,3). A more elaborate version of this fundamental assay, the soft agar colony formation disk diffusion assay was used. This assay defines the relative activity of one particular drug versus a tumoral cell line type. The effect of the test drug against tumoral cells could be measured by its inhibitory capacity against colony formation after the delivery of the compound, in different concentrations on an filter disk(4).
# A modified technique of this assay was used in order to investigate the antiproliferative activity of candidate compounds. Tumoral cells from solid tumors and ascitic lines were plated separately in a two layer agar matrix. Cell lines to be tested were suspended in an upper layer of 0.4% Noble agar (Difco#00142-01) in RPMI-1066 (Gibco#3201875) at a yield varying between 10^4 to 2×10^5 cells per 60 mm Petri dish. Plating efficiency was determined for each line in order to achieve an optimal number of colonies per dish. Plates were examined before drug administration to confirm a uniform dispersion of single cells. The bottom layer consisted of 0.8% Noble agar, 0.8% Tryptic Soy Broth (difco#0037001)in CMRL-1066/Fischer's. The bottom layers were used within 2 and 9 days of preparation. Plated dishes (bottom layer of agar, upper layer of cells and administered drug were incubated in humidified atmosphere at 37° C., 5% CO2 for 10-20 days depending upon the time necessary to observe adequate colonies (defined as a cell aggregate of more than 50 cells) both control and drug inhibited. Drugs were administered on a paper filter disk (Whatman No. 1) of 6.5 mm diameter placed on the upper layer at 1/3 distance from the edge of the dish. The anti-clonogenic activity of the compounds was measured as the zone of inhibition from the disk edge to the most proximal colonies. This zone of inhibition was checked on an inverted microscope (40×) and was measured with a micrometer mounted in the eyepiece. The ocular micrometer was calibrated with a stage micrometer set for a particular combination of ocular and objective lenses.
# 200 units of activity are equivalent to 6.5 mm distance from the disk edge to the first colonies (5). […] We made a modification of the initial technique by not plating a solid tumor and a leukemia simultaneously in the same Petri dish. Anti-clonogenic tests performed on leukemia cell line have helped in the discovery of the majority of current clinically used cytostatic drugs. Our tests on solid tumor lines (animal or human) may help define active compounds with solid tumor specificity. This specific activity would be indicated by a higher level of cloning inhibition in solid tumors versus leukemias (6).
# [10] = tested on: BE-1; assay: Soft agar colony formation disk diffusion assay; format: cell-based, human
# Method in brief: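 Anti-clonogenic effect assessed by disk diffusion in two-layer Noble agar, cells plated separately per line at an optimised density. After 10–20 days incubation, the inhibition zone around the compound disk was measured microscopically.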
# [11] = tested on: SC Lung; conditions: sc lung cancer cell lines, 48 h
# [12] = tested on: Melanoma; conditions: melanoma cell lines, 48 h
# [13] = Homo sapiens, read-out: Average LOG10 GI50
# [14] = Homo sapiens, 48 h, read-out: Average LOG10 LC50
molecule,measurement,setting,value
"COC(=O)C1CC2=C(C(=O)c3c(cc4ccccc4c3O)C2=O)C(O[C@H]2C[C@H](NC(=O)C(F)(F)F)[C@H](O)[C@H](C)O2)O1 (mixture of isomers) [BCH-242, (1'S,1R,3S) and (1'S, 1S,3R)-Methyl[11-hydroxy-1-2',3',6'-trideoxy-3-trifluroacetamido-L-lyxohexopyranose)-5,12-dioxo-3,4,5,12-tetrahydroanthraceno[2,3-c]pyran-3-yl]formate]",GI50,[1]; [13],1550 nM
same,CC50,[2],> 100000 nM
same,CC50,[3]; [14],6170 nM
same,GI50,[3]; [13],977 nM
same,CC50,[4]; [14],2570 nM
same,GI50,[4]; [13],316 nM
same,antiproliferative and cytotoxic activity in words,[5],most of the cell lines of solid tumors ultimately show cytotoxicity to the drug
same,CC50,"[5]; Homo sapiens, 48 h, read-out: Log10 LC50, Mean / MG-MID, all cell lines (converted)",14500 nM
same,IC100,"[5]; Homo sapiens, 48 h, read-out: Log10 TGI, Mean / MG-MID, all cell lines",5.25 µM
same,"Log10 TGI, Mean / MG-MID",[5]; all cell lines,-5.52 log molar
same,"Log10 LC50, Mean / MG-MID","[5]; all cell lines, 2880 min",-5.09 log molar
same,CC50,[6]; [14],6030 nM
same,GI50,[6]; [13],955 nM
same,CC50,[7]; [14],3890 nM
same,GI50,[7]; [13],437 nM
same,GI50,[8]; [13],355 nM
"COC(=O)[C@H]1CC2=C(C(=O)c3c(cc4ccccc4c3O)C2=O)[C@H](O[C@H]2C[C@H](NC(=O)C(F)(F)F)[C@H](O)[C@H](C)O2)O1 (mixture of isomers) [BCH-692, (1'S,1S,3R) and (1'S,1R,3S) Methyl[11-hydroxy-1-(2',3',6'-trideoxy-3'-trifluoroacetamido-4'-hydroxy-L-lyxohexopyranose)-5,12-dioxo-3,4,5,12-tetrahydro-anthraceno[2,3-c]pyran-3-yl]formate]",activity and specificity in words,[9],most active; also recorded: Good broad spectrum activity
same,zone of inhibition,[10]; 10 μg/DISK,0 Zone Units
same,zone of inhibition,[10]; 100 μg/DISK,100.0 ± 50.0 Zone Units
"CCOC(=O)[C@H]1CC2=C(C(=O)c3cc4ccccc4c(O)c3C2=O)[C@H](O[C@H]2C[C@H](NC(=O)C(F)(F)F)[C@H](O)[C@H](C)O2)O1 [BCH-684, (1'S,1S,3R)Ethyl[6-hydroxy-5,12-dioxo-1-(3'-trifluoroacetamido-1-daunosaminyl)-3,4,5,12-tetrahydroanthraceno(2,3-C)pyran-3-yl]formate]",activity and specificity in words,[9],most active; also recorded: Good broad spectrum activity
"COC(=O)[C@@H]1CC2=C(C(=O)c3c(cc4ccccc4c3O)C2=O)[C@@H](O[C@H]2C[C@H](NC(=O)C(F)(F)F)[C@H](O)[C@H](C)O2)O1 [BCH-691, (1'S,1R,3S)-Methyl-{11-hydroxy-1-(2',3',6'-trideoxy-3'-trifluoroacetamido-4'-hydroxy-L-lyxoheoxpyranose)-5,12-dioxo-3,4,5,12-tetrahydroanthraceno[2,3-c]pyran-3-yl}formate]",activity and specificity in words,[9],most active; also recorded: Good broad spectrum activity
same,zone of inhibition,[10]; 10 μg/DISK,55.0 ± 10.0 Zone Units
same,zone of inhibition,[10]; 100 μg/DISK,155.5 ± 50.3 Zone Units
"CC(=O)Oc1c2c(c(O)c3ccccc13)C(=O)C1=C(C2=O)C(O)OC(C(C)=O)C1 (centres unmarked) [BCH-704, Methyl(11-acetoxy-1,6-dihydroxy-5,12-dioxo-3,4,5,12-tetrahydroanthraceno[2,3-c]pyran-3-yl)ketone]",activity and specificity in words,[9],most active; also recorded: Specificity for breast cancer
"Methyl(11-hydroxy-5,12-dioxo-3,4,5,12-tetrahydroanthraceno[2,3-c]pyran-3-yl)ketone and Methyl(5-hydroxy-5,12-dioxo-3,4,5,12-tetrahydroanthraceno[2,3-c]pyran-3-yl)ketone [BCH-687]",Average LOG10 GI50,[1]; CNS,-4.59 ± 0.16 log molar
same,activity and specificity in words,[9],most active; also recorded: responded well
same,Average LOG10 LC50,[11],> -4.18 log molar
same,Average LOG10 GI50,[3]; NSC Lung,-4.81 ± 0.35 log molar
same,Average LOG10 GI50,[4]; Colon,-4.95 ± 0.28 log molar
same,zone of inhibition,[10]; 10 μg/DISK,85.0 ± 44.2 Zone Units
same,zone of inhibition,[10]; 100 μg/DISK,162.6 ± 70.4 Zone Units
same,antiproliferative and cytotoxic activity in words,[5],significant antiproliferative (GI50) and cytotoxic (LC50) activities in solid tumors
same,"Log10 GI50, Mean / MG-MID",[5]; all cell lines,-4.85 log molar
same,"Log10 TGI, Mean / MG-MID",[5]; all cell lines,-4.37 log molar
same,Average LOG10 GI50,[6]; Renal,-4.69 ± 0.23 log molar
same,Average LOG10 GI50,[7]; Melanoma,-5.05 ± 0.27 log molar
same,Average LOG10 LC50,[12],-4.28(± 0.09) log molar
same,Average LOG10 GI50,[8]; SC Lung,-5.09 ± 0.25 log molar
